1 molecule from article PMC9579011, “Coprinopsis cinerea dioxygenase is an oxygenase forming 10(S)-hydroperoxide of linoleic acid, essential for mushroom alcohol, 1-octen-3-ol, synthesis” (The Journal of Biological Chemistry, 2022) can be followed below.

For one assay, the target named is T1, CcDOX1 (Coprinopsis cinerea, UniProt A8N8W9).
T1 construct: gene CC1G_00844; full length, 1066 aa, C-terminal EGFP fusion, expressed in BmN4 (Bombyx mori) cells, immunopurified on anti-GFP beads
T1 sequence (A8N8W9 1-1066): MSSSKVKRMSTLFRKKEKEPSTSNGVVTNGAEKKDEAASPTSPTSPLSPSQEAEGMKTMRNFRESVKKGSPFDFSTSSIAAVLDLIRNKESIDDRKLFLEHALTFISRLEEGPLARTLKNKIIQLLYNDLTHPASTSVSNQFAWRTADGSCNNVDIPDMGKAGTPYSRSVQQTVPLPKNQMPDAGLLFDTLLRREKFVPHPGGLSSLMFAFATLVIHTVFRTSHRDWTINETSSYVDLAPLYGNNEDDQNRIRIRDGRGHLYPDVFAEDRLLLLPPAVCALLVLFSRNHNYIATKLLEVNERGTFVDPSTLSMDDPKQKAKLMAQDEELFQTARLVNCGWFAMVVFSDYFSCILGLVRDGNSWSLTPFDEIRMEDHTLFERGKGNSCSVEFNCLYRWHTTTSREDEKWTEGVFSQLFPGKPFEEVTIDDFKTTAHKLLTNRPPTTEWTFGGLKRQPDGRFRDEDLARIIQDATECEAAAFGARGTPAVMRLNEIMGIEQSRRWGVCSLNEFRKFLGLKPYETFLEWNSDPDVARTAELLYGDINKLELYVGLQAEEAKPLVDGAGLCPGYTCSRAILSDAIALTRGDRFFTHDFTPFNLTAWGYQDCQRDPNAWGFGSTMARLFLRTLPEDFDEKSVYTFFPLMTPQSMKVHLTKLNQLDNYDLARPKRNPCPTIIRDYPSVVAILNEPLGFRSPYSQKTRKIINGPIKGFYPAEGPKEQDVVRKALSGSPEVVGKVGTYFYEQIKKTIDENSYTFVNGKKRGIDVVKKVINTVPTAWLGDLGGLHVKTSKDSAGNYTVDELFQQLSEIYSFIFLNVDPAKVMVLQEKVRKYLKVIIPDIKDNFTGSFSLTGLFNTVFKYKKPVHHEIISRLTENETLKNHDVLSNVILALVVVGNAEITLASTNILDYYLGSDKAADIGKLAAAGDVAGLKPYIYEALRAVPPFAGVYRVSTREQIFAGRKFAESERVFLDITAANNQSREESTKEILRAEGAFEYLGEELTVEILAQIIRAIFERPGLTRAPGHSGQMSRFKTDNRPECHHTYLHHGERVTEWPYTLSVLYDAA
Kind of assay: LC-MS/MS product peak area, Hill fit of [S]-v plot. The format is biochemical. Particulars: Hill coefficient n = 1.9 ± 0.27; 10-500 μM substrate, 30 min on ice; bead-bound immunopurified EGFP fusion; lysis buffer pH 7.4.

A further assay concerns the target T2, CcDOX2 (Coprinopsis cinerea, UniProt A8NN01).
T2 construct: gene CC1G_09914; full length, 1118 aa, C-terminal EGFP fusion, expressed in BmN4 (Bombyx mori) cells, immunopurified with anti-GFP antibody
T2 sequence (A8NN01 1-1118): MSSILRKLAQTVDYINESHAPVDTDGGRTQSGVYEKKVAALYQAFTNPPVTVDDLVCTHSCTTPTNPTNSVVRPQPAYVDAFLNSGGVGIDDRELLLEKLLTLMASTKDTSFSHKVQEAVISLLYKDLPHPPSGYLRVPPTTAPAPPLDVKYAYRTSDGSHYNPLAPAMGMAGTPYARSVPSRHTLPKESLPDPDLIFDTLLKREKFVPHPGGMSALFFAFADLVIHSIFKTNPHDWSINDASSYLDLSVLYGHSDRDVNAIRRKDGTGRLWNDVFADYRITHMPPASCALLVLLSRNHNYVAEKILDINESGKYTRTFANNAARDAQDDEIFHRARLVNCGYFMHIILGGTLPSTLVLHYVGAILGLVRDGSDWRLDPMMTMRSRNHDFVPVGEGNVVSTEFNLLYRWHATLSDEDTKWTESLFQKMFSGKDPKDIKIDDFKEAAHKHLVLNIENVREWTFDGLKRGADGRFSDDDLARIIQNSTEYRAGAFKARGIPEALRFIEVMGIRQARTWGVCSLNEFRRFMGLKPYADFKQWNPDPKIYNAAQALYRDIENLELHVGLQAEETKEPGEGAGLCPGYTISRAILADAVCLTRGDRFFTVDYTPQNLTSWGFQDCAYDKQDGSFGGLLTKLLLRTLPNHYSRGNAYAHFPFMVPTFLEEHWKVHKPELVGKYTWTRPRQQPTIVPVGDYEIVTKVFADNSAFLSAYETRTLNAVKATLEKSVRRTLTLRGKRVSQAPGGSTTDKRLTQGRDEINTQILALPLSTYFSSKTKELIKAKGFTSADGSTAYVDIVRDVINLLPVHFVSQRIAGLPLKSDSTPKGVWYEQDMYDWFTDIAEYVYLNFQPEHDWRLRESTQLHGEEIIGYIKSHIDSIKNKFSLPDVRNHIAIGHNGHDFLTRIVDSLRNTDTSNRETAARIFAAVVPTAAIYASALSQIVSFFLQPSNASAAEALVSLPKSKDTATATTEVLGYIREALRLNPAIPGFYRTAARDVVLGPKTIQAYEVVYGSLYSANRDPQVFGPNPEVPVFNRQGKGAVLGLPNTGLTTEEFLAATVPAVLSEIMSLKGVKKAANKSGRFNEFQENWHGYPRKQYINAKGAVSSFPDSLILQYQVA
The assay is described as follows: LC-MS/MS of products after triphenylphosphine reduction. The format is biochemical. Particulars: immunopurified EGFP fusion; 8-hydroperoxide product (tentative).

Molecules are shown by their SMILES.

`CCCCC/C=C\C/C=C\CCCCCCCC(=O)O` [linoleic acid]: on CcDOX1, the KA came out at 78 ± 9.74 µM. Further, the “LC-MS/MS of products after triphenylphosphine reduction” value on CcDOX2 was “Linoleic acid was added to the purified recombinant CcDOX1 and CcDOX2”.
